Values after ≈ are worked out from the molar mass of the structure shown.

In the first assay the test system is Pasteurella multocida PM 6267 (P 2225 (L386), reference strain, mouse infection strain). The assay can be described thus: MIC, broth-microdilution (CLSI VET01-A4), strain PM 6267. Type of assay: cell-based. The following applies: Pasteurella multocida strain PM 6267, broth-microdilution; unit assumed. As to the method:
(§1) For example, representative compounds were tested against ***, Mannheimia haemolytica and Pasteurella multocida, using the conventional broth-dilution assay.
(§2) The Minimum inhibitory concentrations (MIC) of compounds according to the invention for a number of veterinary bacterial pathogens were determined by the broth-microdilution method according to CLSI document VET01-A4.
(§3) Microdilution trays containing a doubling dilution series of the test compound were used for the tests. The MIC results were interpreted according to the CLSI documents VET01-S3. The lowest concentration of compound at which no visible growth (i.e. no turbidity) detected by the unaided eye was recorded as the MIC.
In turn, `CC(C)[C@H](NC(=O)c1ccc(C#Cc2ccc(CN3CCS(=O)(=O)CC3)cc2)cc1)C(=O)NO` [Compound 99] returned an MIC PM 6267 of no more than 0.1 µg/mL.

With `CC(C)[C@H](NC(=O)c1ccc(C#Cc2ccc(CN3CCc4ccccc4C3)cc2)cc1)C(=O)NO` [Compound 102], the MIC PM 6267 worked out at 0.4 µg/mL (≈ 0.831 µM).

The compound `CC[C@H](C)[C@H](NC(=O)c1ccc(C#Cc2ccc(CNC3CC3)cc2)cc1)C(=O)NO` [Compound 112] gave an MIC PM 6267 of no more than 0.1 µg/mL.

`CC[C@H](C)[C@H](NC(=O)c1ccc(C#Cc2ccc(CNCc3ccc(C)cc3)cc2)cc1)C(=O)NO` [Compound 189] showed an MIC PM 6267 of 0.2 µg/mL (≈ 0.414 µM).

`CC(C)(C(NC(=O)c1ccc(C#Cc2ccc(CNC3CC3)cc2)cc1)C(=O)NO)[N+](=O)[O-]` (racemic) [Compound 218] had an MIC PM 6267 of 0.4 µg/mL (≈ 0.888 µM).

For a further assay, the system named is Mannheimia haemolytica MH 12587 (1071, BRD field isolate, macrolide-resistance: erm+, E+). In words: MIC, broth-microdilution (CLSI VET01-A4), strain MH 12587. Type of assay: cell-based. The note with it: Mannheimia haemolytica strain MH 12587, broth-microdilution; unit assumed. As to the method: as §1, §2, §3
`CC(C)[C@H](NC(=O)c1ccc(C#Cc2ccc(CN3CCS(=O)(=O)CC3)cc2)cc1)C(=O)NO` [Compound 99]: the MIC MH 12587 was determined as 12.5 µg/mL (≈ 25.8 µM).

`CC(C)[C@H](NC(=O)c1ccc(C#Cc2ccc(CN3CCc4ccccc4C3)cc2)cc1)C(=O)NO` [Compound 102] showed an MIC MH 12587 of 12.5 µg/mL (≈ 26 µM).

As for `CC[C@H](C)[C@H](NC(=O)c1ccc(C#Cc2ccc(CNC3CC3)cc2)cc1)C(=O)NO` [Compound 112], the MIC MH 12587 amounted to 0.8 µg/mL (≈ 1.91 µM).

`CC[C@H](C)[C@H](NC(=O)c1ccc(C#Cc2ccc(CNCc3ccc(C)cc3)cc2)cc1)C(=O)NO` [Compound 189] had an MIC MH 12587 of 3.1 µg/mL (≈ 6.41 µM).

On to `CC(C)(C(NC(=O)c1ccc(C#Cc2ccc(CNC3CC3)cc2)cc1)C(=O)NO)[N+](=O)[O-]` (racemic) [Compound 218], for which the MIC MH 12587 stood at 0.8 µg/mL (≈ 1.78 µM).

In another assay the test system is Pasteurella multocida PM 12080 (IV102277-0093, BRD field isolate). In words: MIC, broth-microdilution (CLSI VET01-A4), strain PM 12080. The note with it: Pasteurella multocida strain PM 12080, broth-microdilution; unit assumed. The class given is cell-based. As to the method: as §1, §2, §3
`CC(C)[C@H](NC(=O)c1ccc(C#Cc2ccc(CN3CCS(=O)(=O)CC3)cc2)cc1)C(=O)NO` [Compound 99] yielded an MIC PM 12080 of 0.2 µg/mL (≈ 0.414 µM).

`CC(C)[C@H](NC(=O)c1ccc(C#Cc2ccc(CN3CCc4ccccc4C3)cc2)cc1)C(=O)NO` [Compound 102]: the MIC PM 12080 amounted to 0.8 µg/mL (≈ 1.66 µM).

In turn, `CC[C@H](C)[C@H](NC(=O)c1ccc(C#Cc2ccc(CNC3CC3)cc2)cc1)C(=O)NO` [Compound 112] displayed an MIC PM 12080 of 0.2 µg/mL (≈ 0.477 µM).

With `CC[C@H](C)[C@H](NC(=O)c1ccc(C#Cc2ccc(CNCc3ccc(C)cc3)cc2)cc1)C(=O)NO` [Compound 189], the MIC PM 12080 came to 0.4 µg/mL (≈ 0.827 µM).

For the compound `CC(C)(C(NC(=O)c1ccc(C#Cc2ccc(CNC3CC3)cc2)cc1)C(=O)NO)[N+](=O)[O-]` (racemic) [Compound 218], the MIC PM 12080 was no more than 0.1 µg/mL.

The test system of a further assay is Mannheimia haemolytica MH 6374 (ATCC 33396, reference strain). The assay can be described thus: MIC, broth-microdilution (CLSI VET01-A4), strain MH 6374. Type of assay: cell-based. The note with it: Mannheimia haemolytica strain MH 6374, broth-microdilution; unit assumed. As to the method: as §1, §2, §3
Compound `CC(C)[C@H](NC(=O)c1ccc(C#Cc2ccc(CN3CCS(=O)(=O)CC3)cc2)cc1)C(=O)NO` [Compound 99] had an MIC MH 6374 of 6.3 µg/mL (≈ 13 µM).

Take `CC(C)[C@H](NC(=O)c1ccc(C#Cc2ccc(CN3CCc4ccccc4C3)cc2)cc1)C(=O)NO` [Compound 102]: the MIC MH 6374 came to 3.1 µg/mL (≈ 6.44 µM).

Regarding `CC[C@H](C)[C@H](NC(=O)c1ccc(C#Cc2ccc(CNC3CC3)cc2)cc1)C(=O)NO` [Compound 112], the MIC MH 6374 turned out to be 0.4 µg/mL (≈ 0.953 µM).

The compound `CC[C@H](C)[C@H](NC(=O)c1ccc(C#Cc2ccc(CNCc3ccc(C)cc3)cc2)cc1)C(=O)NO` [Compound 189] displayed an MIC MH 6374 of 3.1 µg/mL (≈ 6.41 µM).

In turn, `CC(C)(C(NC(=O)c1ccc(C#Cc2ccc(CNC3CC3)cc2)cc1)C(=O)NO)[N+](=O)[O-]` (racemic) [Compound 218] yielded an MIC MH 6374 of 0.4 µg/mL (≈ 0.888 µM).

The subject of the next assay is Mannheimia haemolytica MH 13093 (XB0472-6014.1, BRD field isolate). In words: MIC, broth-microdilution (CLSI VET01-A4), strain MH 13093. The class given is cell-based. The note with it: Mannheimia haemolytica strain MH 13093, broth-microdilution; unit assumed. The protocol:
as §1, §2, §3
The compound `CC(C)[C@H](NC(=O)c1ccc(C#Cc2ccc(CN3CCS(=O)(=O)CC3)cc2)cc1)C(=O)NO` [Compound 99] had an MIC MH 13093 of 6.3 µg/mL (≈ 13 µM).

Compound `CC(C)[C@H](NC(=O)c1ccc(C#Cc2ccc(CN3CCc4ccccc4C3)cc2)cc1)C(=O)NO` [Compound 102] had an MIC MH 13093 of 6.3 µg/mL (≈ 13.1 µM).

Turning to `CC[C@H](C)[C@H](NC(=O)c1ccc(C#Cc2ccc(CNC3CC3)cc2)cc1)C(=O)NO` [Compound 112], the MIC MH 13093 was found to be 0.4 µg/mL (≈ 0.953 µM).

In the case of `CC[C@H](C)[C@H](NC(=O)c1ccc(C#Cc2ccc(CNCc3ccc(C)cc3)cc2)cc1)C(=O)NO` [Compound 189], the MIC MH 13093 was 3.1 µg/mL (≈ 6.41 µM).

As for `CC(C)(C(NC(=O)c1ccc(C#Cc2ccc(CNC3CC3)cc2)cc1)C(=O)NO)[N+](=O)[O-]` (racemic) [Compound 218], the MIC MH 13093 worked out at 0.4 µg/mL (≈ 0.888 µM).

Another assay concerns Mannheimia haemolytica MH 6357 (M7/2, reference strain, cattle infection strain). In words: MIC, broth-microdilution (CLSI VET01-A4), strain MH 6357. The note with it: Mannheimia haemolytica strain MH 6357, broth-microdilution; unit assumed. The class given is cell-based. As to the method: as §1, §2, §3
As to `CC(C)[C@H](NC(=O)c1ccc(C#Cc2ccc(CN3CCS(=O)(=O)CC3)cc2)cc1)C(=O)NO` [Compound 99], the MIC MH 6357 is 3.1 µg/mL (≈ 6.41 µM).

As to `CC(C)[C@H](NC(=O)c1ccc(C#Cc2ccc(CN3CCc4ccccc4C3)cc2)cc1)C(=O)NO` [Compound 102], the MIC MH 6357 was found to be 3.1 µg/mL (≈ 6.44 µM).

In turn, `CC[C@H](C)[C@H](NC(=O)c1ccc(C#Cc2ccc(CNC3CC3)cc2)cc1)C(=O)NO` [Compound 112] gave an MIC MH 6357 of 1.6 µg/mL (≈ 3.81 µM).

`CC[C@H](C)[C@H](NC(=O)c1ccc(C#Cc2ccc(CNCc3ccc(C)cc3)cc2)cc1)C(=O)NO` [Compound 189] gave an MIC MH 6357 of 1.6 µg/mL (≈ 3.31 µM).

In the case of `CC(C)(C(NC(=O)c1ccc(C#Cc2ccc(CNC3CC3)cc2)cc1)C(=O)NO)[N+](=O)[O-]` (racemic) [Compound 218], the MIC MH 6357 worked out at 0.4 µg/mL (≈ 0.888 µM).

A further assay relates to Mannheimia haemolytica MH 10720 (154, BRD field isolate). The assay can be described thus: MIC, broth-microdilution (CLSI VET01-A4), strain MH 10720. The class given is cell-based. The note with it: Mannheimia haemolytica strain MH 10720, broth-microdilution; unit assumed. As to the method:
as §1, §2, §3
Consider `CC(C)[C@H](NC(=O)c1ccc(C#Cc2ccc(CN3CCS(=O)(=O)CC3)cc2)cc1)C(=O)NO` [Compound 99], for which the MIC MH 10720 was 0.8 µg/mL (≈ 1.65 µM).

`CC(C)[C@H](NC(=O)c1ccc(C#Cc2ccc(CN3CCc4ccccc4C3)cc2)cc1)C(=O)NO` [Compound 102] returned an MIC MH 10720 of 0.8 µg/mL (≈ 1.66 µM).

For `CC[C@H](C)[C@H](NC(=O)c1ccc(C#Cc2ccc(CNC3CC3)cc2)cc1)C(=O)NO` [Compound 112], the MIC MH 10720 was no more than 0.1 µg/mL.

On to `CC(C)(C(NC(=O)c1ccc(C#Cc2ccc(CNC3CC3)cc2)cc1)C(=O)NO)[N+](=O)[O-]` (racemic) [Compound 218], for which the MIC MH 10720 is no more than 0.1 µg/mL.

A further assay has as its system Mannheimia haemolytica MH 13065 (XB0446-6003.9, BRD field isolate). In words: MIC, broth-microdilution (CLSI VET01-A4), strain MH 13065. The class given is cell-based. The note with it: Mannheimia haemolytica strain MH 13065, broth-microdilution; unit assumed. As to the method:
as §1, §2, §3
Regarding `CC(C)[C@H](NC(=O)c1ccc(C#Cc2ccc(CN3CCS(=O)(=O)CC3)cc2)cc1)C(=O)NO` [Compound 99], the MIC MH 13065 was 6.3 µg/mL (≈ 13 µM).

For `CC(C)[C@H](NC(=O)c1ccc(C#Cc2ccc(CN3CCc4ccccc4C3)cc2)cc1)C(=O)NO` [Compound 102], the MIC MH 13065 came to 3.1 µg/mL (≈ 6.44 µM).

In the case of `CC[C@H](C)[C@H](NC(=O)c1ccc(C#Cc2ccc(CNC3CC3)cc2)cc1)C(=O)NO` [Compound 112], the MIC MH 13065 worked out at 0.4 µg/mL (≈ 0.953 µM).

In the case of `CC[C@H](C)[C@H](NC(=O)c1ccc(C#Cc2ccc(CNCc3ccc(C)cc3)cc2)cc1)C(=O)NO` [Compound 189], the MIC MH 13065 was determined as 1.6 µg/mL (≈ 3.31 µM).

On to `CC(C)(C(NC(=O)c1ccc(C#Cc2ccc(CNC3CC3)cc2)cc1)C(=O)NO)[N+](=O)[O-]` (racemic) [Compound 218], for which the MIC MH 13065 is 0.4 µg/mL (≈ 0.888 µM).

A further assay concerns Pasteurella multocida PM 10775 (080130003051, BRD field isolate). In words: MIC, broth-microdilution (CLSI VET01-A4), strain PM 10775. Type of assay: cell-based. The note with it: Pasteurella multocida strain PM 10775, broth-microdilution; unit assumed. As to the method:
as §1, §2, §3
With `CC(C)[C@H](NC(=O)c1ccc(C#Cc2ccc(CN3CCS(=O)(=O)CC3)cc2)cc1)C(=O)NO` [Compound 99], the MIC PM 10775 is no more than 0.1 µg/mL.

Take `CC(C)[C@H](NC(=O)c1ccc(C#Cc2ccc(CN3CCc4ccccc4C3)cc2)cc1)C(=O)NO` [Compound 102]: the MIC PM 10775 was no more than 0.1 µg/mL.

With `CC[C@H](C)[C@H](NC(=O)c1ccc(C#Cc2ccc(CNC3CC3)cc2)cc1)C(=O)NO` [Compound 112], the MIC PM 10775 was no more than 0.1 µg/mL.

In turn, `CC[C@H](C)[C@H](NC(=O)c1ccc(C#Cc2ccc(CNCc3ccc(C)cc3)cc2)cc1)C(=O)NO` [Compound 189] registered an MIC PM 10775 of no more than 0.1 µg/mL.

The values above are taken from patent publication US11034650B2, “Compounds useful for treating a Mannheimia haemolytica or Histophilus somni infection” (Intervet Inc., priority 2016, dated 2021).
